Legend:
[1] = biological target: T1, full-length, nucleotide-free HSP70 protein (Homo sapiens, UniProt P0DMV8, E110D); assay: ITC binding to nucleotide-free full-length HSP70; settings: average and s.d. of two experiments, read-out: dissociation constant
T1 construct: Full-length recombinant proteins of HSP70 (aa 1-641) as well as DnaK (aa 1-638); His6 (N); made in house; host or cells: E. coli BL21 Star (DE3)
Description: FIGS. 3A-3L illustrate that PET-16 binds directly to ADP-bound HSP70 and DnaK. Specifically, FIGS. 3A-3H are isothermal calorimetric titration (ITC) assays of the indicated compounds (NRLLLTG—SEQ ID NO: 7, PES or PET-16) with purified HSP70-ADP, DnaK-ADP or HSP70-ATP proteins. The data are representative of three independent experiments. FIGS. 3I and 3J are ITC assays for the interaction between HSP70 (aa 386-616 of SEQ ID NO: 2) protein and PET-16 (I) or TPP (J). Binding constants (Kd values) are shown (average and s.d. from three independent experiments). PET-16 also binds directly to the purified, full-length, nucleotide-free HSP70 protein, with a reported dissociation constant of 5.2+/−0.1 micromolar, which is the average and standard deviation from two independent experiments (data not shown). FIG. 3K is ITC assay of HSP70 protein preincubated with ADP and PES for 1 h. The mixture was titrated into the sample cell containing PET-16. The data are representative of three independent ITC experiments. FIG. 3L are western blots of human lung carcinoma (H1299) cells that were pretreated with DMSO or excess (8×) PET-16 for 1 h prior to the addition of 20 μM B-PES for 5 h and examined for the expression of HSP70 or BCL-xL. B-PES-containing complexes were captured by Avidin resins and immunoblotted either with anti-HSP70 or anti-BCL-xL antibody. […]

[2] = test system: non-transformed cells (fibroblasts, primary melanocytes); assay: Viability of non-transformed cells; type: cell-based, human; settings: at concentrations that inhibit tumor cell viability
Experimental: FIGS. 2A-2D illustrate the cytotoxicity of PET-16 to human tumor cells and its inhibition on E. coli growth. FIG. 2A is a line graph with data obtained from MTT assays of human melanoma cell lines treated with the indicated concentrations of PES or PET-16 for 72 h. The corresponding cell survival is normalized to vehicle (DMSO) treatment. Average and standard deviation (s.d.) from three independent experiments are shown. FIG. 2B are bar graphs of human melanoma (A875) cells and nontransformed human (IMR90) fibroblasts that were treated with DMSO, 10 μM PES or 10 μM PET-16 for 24 h. […] FIG. 2C is a line graph illustrating the growth of E. coli DH5α treated with different concentrations of PES or PET-16 for 6 h at 43° C. Error bars represent the s.d. of four independent experiments. FIG. 2D is a bar graph illustrating the growth of E. coli DH5α treated with DMSO, 30 μM PET-16 or 30 μM TPP for 6 h at 43° C. Error bars represent the s.d. of four independent experiments.

HSP70 = HSP70 (Homo sapiens, UniProt P0DMV8); assay: Immunoprecipitation of HSP70 and co-precipitating proteins; type: cell-based; parameters: endogenous in cells; host or cells: A875 and 451 Lu human melanoma cells; settings: IP-WB, A875 or 451 Lu cells
HSP70, sequence (P0DMV8 whole entry): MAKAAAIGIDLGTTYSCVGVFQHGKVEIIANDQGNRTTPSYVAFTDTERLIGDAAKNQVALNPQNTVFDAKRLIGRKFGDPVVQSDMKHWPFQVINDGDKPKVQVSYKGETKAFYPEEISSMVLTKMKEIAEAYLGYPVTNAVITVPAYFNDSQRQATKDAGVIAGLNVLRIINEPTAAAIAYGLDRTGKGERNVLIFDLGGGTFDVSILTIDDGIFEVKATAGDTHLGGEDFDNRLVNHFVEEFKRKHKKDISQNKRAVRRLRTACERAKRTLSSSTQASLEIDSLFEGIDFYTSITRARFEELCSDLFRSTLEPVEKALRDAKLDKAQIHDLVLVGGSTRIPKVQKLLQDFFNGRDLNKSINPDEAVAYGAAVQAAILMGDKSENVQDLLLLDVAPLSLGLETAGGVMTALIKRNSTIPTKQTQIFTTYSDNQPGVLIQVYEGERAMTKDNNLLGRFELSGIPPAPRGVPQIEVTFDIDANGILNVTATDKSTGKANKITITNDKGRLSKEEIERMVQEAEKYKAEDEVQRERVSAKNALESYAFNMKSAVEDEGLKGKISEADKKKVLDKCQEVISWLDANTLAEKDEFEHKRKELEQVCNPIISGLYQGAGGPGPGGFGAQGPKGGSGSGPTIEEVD
Description: FIGS. 4A-4L illustrate that PET-16 impairs proteostasis. […] There is a general absence of obvious nuclei in PET-16 treated tumor cells. […] FIGS. 4D and 4E are gels of whole-cell extracts (WCE) prepared from human melanoma A875 (D) or 451 Lu (E) cells treated with DMSO, PES or PET-16 that were immunoprecipitated using an anti-HSP70 antibody. The excised band of about 70 kDa shown in the Coomassie gel is HSP70, as confirmed by liquid chromatography—tandem mass spectrometry analysis. FIGS. 4F-4I are western blots of cell lines were treated with DMSO, PES or PET-16 for 24 h and immunoblotted for the indicated proteins. FIG. 4J are western blots of indicated melanomas pretreated with DMSO, PES or PET-16, followed by treatment with IL-6. Cell extracts were immunoblotted for the proteins indicated. Inhibition of IL-6 induced STAT3 and STAT1 phosphorylation by PET-16. FIG. 4K is a western blot analysis indicating altered processing of cathepsin L from the larger precursor form to the smaller mature form in the indicated cells following PET-16 treatment for 24 h. FIG. 4L is a western blot of the human melanoma 451 Lu cells treated with DMSO, PES or PET-16 for 24 h. Cells were harvested in 1% NP40-containing lysis buffer, fractionated into detergent-soluble and detergent-insoluble preparations, and assayed by western blot for ubiquitin. […]

T1 sequence (P0DMV8 whole entry E110D, the tested form may be a part): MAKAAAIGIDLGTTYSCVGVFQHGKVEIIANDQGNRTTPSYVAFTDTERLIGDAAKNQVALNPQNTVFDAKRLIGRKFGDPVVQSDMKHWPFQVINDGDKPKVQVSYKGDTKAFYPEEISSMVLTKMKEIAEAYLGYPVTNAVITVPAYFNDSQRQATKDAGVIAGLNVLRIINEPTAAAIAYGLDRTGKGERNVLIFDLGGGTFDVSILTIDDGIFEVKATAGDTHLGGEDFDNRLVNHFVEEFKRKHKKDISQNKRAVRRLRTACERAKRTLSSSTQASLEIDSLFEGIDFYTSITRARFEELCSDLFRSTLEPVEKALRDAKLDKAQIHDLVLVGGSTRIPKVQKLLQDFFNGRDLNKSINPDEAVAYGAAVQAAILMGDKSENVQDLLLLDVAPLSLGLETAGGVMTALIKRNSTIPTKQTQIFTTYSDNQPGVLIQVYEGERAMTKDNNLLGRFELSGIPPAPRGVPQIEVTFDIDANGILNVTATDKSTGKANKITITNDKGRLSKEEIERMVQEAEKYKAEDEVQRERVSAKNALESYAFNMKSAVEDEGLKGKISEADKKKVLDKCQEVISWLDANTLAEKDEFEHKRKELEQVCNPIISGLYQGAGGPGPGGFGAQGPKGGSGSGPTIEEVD

**Q.** Which results are given for C(#C[P+](c1ccccc1)(c1ccccc1)c1ccccc1)c1ccccc1.[Br-] [PET-16, triphenyl(phenylethynyl)phosphonium bromide]?
**A.** Kd [1]: 5.2 µM; effect on viability of non-transformed cells [2]: little effect; interactions between HSP70 and client/substrate proteins (HSP70): loss of interactions

— US10010560B2, “Small molecule HSP70 inhibitors” (THE TRUSTEES OF THE UNIVERSITY OF PENNSYLVANIA, priority 2014, dated 2018)
